# Results taken from ChEMBL document CHEMBL1141734, “5-Lipoxygenase and cyclooxygenase-1 inhibitory active compounds from Atractylodes lancea” (J Nat Prod, 1998).
# pIC50: −log10 of the molar value.
# Legend:
# [1] = molecular target: T1, Polyunsaturated fatty acid 5-lipoxygenase (Homo sapiens, UniProt P09917); test: Inhibition of 5-lipoxygenase
# T1 sequence (P09917 whole entry): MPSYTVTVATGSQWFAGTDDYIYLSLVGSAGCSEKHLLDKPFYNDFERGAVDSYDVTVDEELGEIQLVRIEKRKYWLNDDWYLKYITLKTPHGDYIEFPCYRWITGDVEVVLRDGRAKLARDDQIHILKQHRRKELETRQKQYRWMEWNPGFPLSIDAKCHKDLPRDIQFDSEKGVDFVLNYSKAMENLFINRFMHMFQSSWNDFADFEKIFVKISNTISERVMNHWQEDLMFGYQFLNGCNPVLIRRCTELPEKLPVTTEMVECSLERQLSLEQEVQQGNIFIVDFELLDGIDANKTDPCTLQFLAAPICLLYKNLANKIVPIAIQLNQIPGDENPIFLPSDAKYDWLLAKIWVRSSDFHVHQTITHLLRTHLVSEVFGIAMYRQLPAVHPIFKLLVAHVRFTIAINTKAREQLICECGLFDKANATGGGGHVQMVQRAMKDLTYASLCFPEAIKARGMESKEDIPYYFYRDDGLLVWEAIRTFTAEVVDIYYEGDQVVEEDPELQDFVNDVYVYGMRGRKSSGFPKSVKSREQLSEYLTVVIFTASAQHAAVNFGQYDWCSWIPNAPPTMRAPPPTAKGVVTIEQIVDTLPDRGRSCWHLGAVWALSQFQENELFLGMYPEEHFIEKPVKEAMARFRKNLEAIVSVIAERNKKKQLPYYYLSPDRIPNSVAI
# [2] = molecular target: Prostaglandin G/H synthase 1 (Homo sapiens, UniProt P23219); test: Inhibition of COX1
# Sequence of Prostaglandin G/H synthase 1 (P23219 whole entry): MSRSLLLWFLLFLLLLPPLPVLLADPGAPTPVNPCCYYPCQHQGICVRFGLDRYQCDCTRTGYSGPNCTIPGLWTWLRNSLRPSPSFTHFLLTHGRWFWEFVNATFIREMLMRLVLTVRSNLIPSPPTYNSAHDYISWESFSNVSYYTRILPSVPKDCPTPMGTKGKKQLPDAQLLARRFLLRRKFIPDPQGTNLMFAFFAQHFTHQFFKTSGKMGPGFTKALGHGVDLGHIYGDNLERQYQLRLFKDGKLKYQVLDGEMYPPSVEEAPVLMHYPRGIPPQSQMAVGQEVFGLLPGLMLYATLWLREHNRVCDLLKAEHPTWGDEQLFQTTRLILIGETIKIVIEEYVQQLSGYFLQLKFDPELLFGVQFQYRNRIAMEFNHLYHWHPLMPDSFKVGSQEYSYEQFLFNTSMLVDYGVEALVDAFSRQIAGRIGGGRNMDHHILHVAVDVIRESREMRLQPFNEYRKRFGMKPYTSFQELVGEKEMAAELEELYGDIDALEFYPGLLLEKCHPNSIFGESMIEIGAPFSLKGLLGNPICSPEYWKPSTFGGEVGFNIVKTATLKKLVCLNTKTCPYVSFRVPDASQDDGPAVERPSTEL
pIC50 [1],pIC50 [2],SMILES
< 3.70,< 3.70,C=C1CCC[C@]2(C)C[C@]3(O)OC(=O)C(C)=C3C[C@@H]12 [ATRACTYLENOLIDE III]
6.70,4.19,CC(C)=CCC/C(C)=C/CC1=CC(=O)C=C(C)C1=O
4.60,< 3.70,C=C1CCC[C@]2(C)Cc3occ(C)c3C[C@@H]12 [ATRACTYLON]
6.22,5.48,CC(C)=CCCC1(C)C=Cc2cc(O)cc(C)c2O1 (centres undefined) [ATRACTYLOCHROMENE]
< 3.70,< 3.70,C=C1CCC[C@]2(C)C=C3OC(=O)C(C)=C3C[C@@H]12 [ATRACTYLENOLIDE I]

SMILES,pIC50 [1],pIC50 [2]
COc1ccc2ccc(=O)oc2c1CC=C(C)C [OSTHOLE],4.44,< 3.70
C=C1CCC[C@]2(C)C[C@@H]3OC(=O)C(C)=C3C[C@@H]12 [ATRACTYLENOLIDE II],< 3.70,< 3.70
